What all share (assay type): cell-based
In one assay the test system is SIRT4 KO MEFs. Nature of the assay: Proliferation of SIRT4 KO MEFs. The settings on record: SIRT4 KO versus WT MEFs cultured with BPTES. As for the experimental part:
To test whether enhanced glutamine metabolism drove the proliferative phenotype of KO cells, cells were cultured with BPTES and proliferation was measured.

Another assay has as its system SIRT4 KO cells. Nature of the assay: Glutamine uptake of SIRT4 KO cells with glutaminolysis inhibitors. The settings on record: for glutamine uptake: 10 μM BPTES, 50 μM EGCG. As for the experimental part:
(§1) As described above, SIRT4 represses glutamine-derived mitochondrial anaplerosis. This node was investigated further using a pharmacological and genetic approach. GLS is the first required enzyme for mitochondrial glutamine metabolism, and catalyzes the hydrolysis of glutamine to glutamate and ammonia. […] Drugs that block glutamate dehydrogenase (GDH) activity were also examined. There were no effects of a GDH inhibitor, 50 μM of Epigallocatechin gallate (EGCG), in glutamine uptake. Moreover, SIRT4 overexpression could no longer inhibit glutamine uptake and ammonia production when GLS1 was targeted using short hairpin RNA (shRNA) (FIG. 13b, c). Finally, cells were treated with chemical inhibitors of mitochondrial glutaminolysis in order to probe the model that suppressing this node could block the repression of glutamine uptake by DNA damage.

The subject of assay [1] is mitochondrial glutaminolysis. Nature of the assay: Repression of glutamine uptake by UV in the presence of inhibitors of mitochondrial glutaminolysis. The settings on record: in the presence of the inhibitor. As for the experimental part: as §1
For a further assay, the system named is HeLa cells. Nature of the assay: Proliferation of control and SIRT4-expressing HeLa cells. The settings on record: media containing BPTES.
In another assay the test system is SIRT4. Nature of the assay: SIRT4 expression level after genotoxic stress, HEK293T cells. The settings on record: 14 μM CPT, 25 μM ETS, 48 μM tunicamycin. From the text: The relationship between sirtuin expression and DNA damage was next investigated.
In assay [2] the test system is SIRT4 protein. Nature of the assay: SIRT4 protein expression by western blot, HEK293T cells. For orientation: In western blotting, separated proteins are transferred to a membrane and probed.
Assay [3] concerns SIRT4 protein. Nature of the assay: SIRT4 protein expression by western blot, MEF cells.
Assay [4] relates to HepG2 cells. Nature of the assay: Metabolite levels in culture media (BioProfile FLEX analyzer), HepG2 cells. The settings on record: 14 μM for 12 hours. As for the experimental part:
(§2) The relationship between glutamine metabolism and DNA damage was investigated. HepG2 cells and MEF cells were treated with either 14 μM camptothecin (CPT) for 12 hours or 50 J/m^2 ultra-violet (UV) radiation, both of which are known to induce DNA damage in cells. Glucose, glutamine, lactate and ammonia (NH4^+) levels in culture media were measured using the BioProfile FLEX analyzer (Nova Biomedical) according to the manufacturer's instructions.

The subject of a further assay is MEF cells. Nature of the assay: Metabolite levels in culture media (BioProfile FLEX analyzer), MEF cells. The settings on record: 14 μM for 12 hours. As for the experimental part:
as §2

Assay [5] relates to HepG2 cells. Nature of the assay: Relative ATP/ADP ratio of HepG2 cells stably expressing human SIRT4 or SIRT4 mutant. The settings on record: CPT (14 μM) + oligomycin (5 g/ml) for 18 hours. As for the experimental part: The relationship between SIRT4 and mitochondrial metabolism was next investigated. The relative ATP/ADP ratio of HepG2 cells that stably expressed human SIRT4 or SIRT4 mutant was measured following treatment with DMSO, CPT (14 μM) or CPT+oligomycin ([…]) for 18 hours.

`O=C(Cc1ccccc1)Nc1nnc(CCSCCc2nnc(NC(=O)Cc3ccccc3)s2)s1` [BPTES, bis-2-(5-phenylacetoamido-1,2,4-thiadiazol-2-yl)ethyl sulfide]: in the assay with SIRT4 KO MEFs, the “increased proliferation of KO cells” value is recorded as “completely abrogated”. Also, in the assay on SIRT4 KO cells (10 μM), the “increased glutamine consumption of SIRT4 KO cells” value was “rescued”. In the assay with SIRT4 KO cells, the glutamine uptake entry was “repressed glutamine uptake”. Moreover, the “repression of glutamine uptake by UV treatment” value in assay [1] is “could no longer repress glutamine uptake”. For the same molecule, the “proliferation of control and SIRT4-expressing cells” value with HeLa cells is recorded as “proliferated at similar rates”.
Consider `CC[C@@]1(O)C(=O)OCc2c1cc1n(c2=O)Cc2cc3ccccc3nc2-1` [CPT, camptothecin], for which the “level of SIRT4 expression versus length of exposure” value in the assay on SIRT4 is “correlated with the length of time”. Besides, the SIRT4 protein expression entry in the assay on SIRT4 protein [2] and with SIRT4 protein [3] was “increased SIRT4 protein expression” in each case. Further, the “NH4+ production” value in the assay on HepG2 cells [4] and in the assay with MEF cells was “significant reductions” each time. In addition, the glutamine consumption result in the assay with HepG2 cells [4] and in the assay with MEF cells was “significant reductions” in each case.
Regarding `O=C(O[C@@H]1Cc2c(O)cc(O)cc2O[C@@H]1c1cc(O)c(O)c(O)c1)c1cc(O)c(O)c(O)c1` [EGCG, Epigallocatechin gallate], the glutamine uptake result with SIRT4 KO cells is listed as “no effects”.
With `COc1cc([C@@H]2c3cc4c(cc3[C@@H](O[C@@H]3O[C@@H]5CO[C@@H](C)O[C@H]5[C@H](O)[C@H]3O)[C@H]3COC(=O)[C@H]23)OCO4)cc(OC)c1O` [ETS, etoposide], the SIRT4 protein expression result in the assay on SIRT4 protein [2] and with SIRT4 protein [3] was “increased SIRT4 protein expression” in each case.
Regarding `CC[C@H]1/C=C/C=C/C[C@@H](C)[C@H](O)[C@@](C)(O)C(=O)[C@@H](C)[C@H](O)[C@@H](C)C(=O)[C@@H](C)[C@H](O)[C@@H](C)/C=C/C(=O)O[C@@H]2[C@H](C)[C@H](CC1)O[C@]1(CC[C@H](C)[C@H](C[C@@H](C)O)O1)[C@H]2C` [oligomycin], the “difference in ATP/ADP ratio between SIRT4 and mutant SIRT4 over-expressing cells after CPT” value in the assay with HepG2 cells [5] was “difference disappeared”.
tunicamycin: the “level of SIRT4 expression versus length of exposure” value in the assay with SIRT4 is recorded as “correlated with the length of time”.

For the origin of these results see patent publication US20140186325A1, “Methods of Cancer Treatment and Prevention Through the Modulation of SIRT4 Activity” (President and Fellows of Harvard College, priority 2011, published 2014).
